In patent publication US20230355597A1, “COMPOUNDS, COMPOSITIONS, AND METHODS FOR THE TREATMENT AND PREVENTION OF AVIAN PATHOGENIC E. COLI (APEC)” (OHIO STATE INNOVATION FOUNDATION, priority 2018, published 2023):
Converted amounts (≈) assume the structure as drawn. Marks after values point to notes of the source that are not given here.

Experiments:
[1] = tested on: intracellular APEC O2 in THP-1 cells; test: Intracellular survival assay (cidal SMs); conditions: O2, THP-1, 6 h treatment; superscript = multiple of MIC
[2] = tested on: intracellular APEC O78 in HD11 cells; test: Intracellular survival assay (cidal SMs); conditions: O78, HD11, 6 h treatment; superscript = multiple of MIC
[3] = tested on: intracellular APEC O78, O2, and O1 in infected Caco-2, HD11, and THP1 cells; test: Intracellular survival assay (cidal SMs), summary over serotypes and cells; conditions: overall ranking
APEC O2 = assay type: cell-based, avian pathogenic Escherichia coli (APEC); conditions: APEC O2, M63 media; MIC/MBC
[4] = tested on: intracellular APEC O1 in HD11 cells; test: Intracellular survival assay (cidal SMs); conditions: O1, HD11, 6 h treatment; superscript = multiple of MIC
[5] = tested on: intracellular APEC O1 in Caco-2 cells; test: Intracellular survival assay (cidal SMs); conditions: O1, Caco-2, 6 h treatment; superscript = multiple of MIC
APEC O18 = assay type: cell-based, avian pathogenic Escherichia coli (APEC); conditions: APEC O18, M63 media; MIC/MBC
APEC O78-53 = assay type: cell-based, avian pathogenic Escherichia coli (APEC); conditions: APEC O78-53, M63 media; MIC/MBC
Rif^r APEC O78 = test: In vivo efficacy of growth inhibitors in APEC infected broiler chickens
APEC O78 [6] = assay type: cell-based, avian pathogenic Escherichia coli (APEC); conditions: APEC O78, M63 media; cell prints MIC/MBC
[7] = tested on: biofilm embedded APEC O78; test: MBEC High-throughput assay; assay type: cell-based, avian pathogenic Escherichia coli (APEC)
APEC O15 = assay type: cell-based, avian pathogenic Escherichia coli (APEC); conditions: APEC O15, M63 media; MIC/MBC
[8] = tested on: intracellular APEC O2 in Caco-2 cells; test: Intracellular survival assay (cidal SMs); conditions: O2, Caco-2, 6 h treatment; superscript = multiple of MIC
APEC O1-63 = assay type: cell-based, avian pathogenic Escherichia coli (APEC); conditions: APEC O1-63, M63 media; MIC/MBC
[9] = tested on: intracellular APEC O78 in THP-1 cells; test: Intracellular survival assay (cidal SMs); conditions: O78, THP-1, 6 h treatment; superscript = multiple of MIC
APEC O1 = assay type: cell-based, avian pathogenic Escherichia coli (APEC); conditions: APEC O1, M63 media; MIC/MBC
[10] = tested on: intracellular APEC O1 in THP-1 cells; test: Intracellular survival assay (cidal SMs); conditions: O1, THP-1, 6 h treatment; superscript = multiple of MIC
[11] = tested on: intracellular APEC O2 in HD11 cells; test: Intracellular survival assay (cidal SMs); conditions: O2, HD11, 6 h treatment; superscript = multiple of MIC
APEC O8 = assay type: cell-based, avian pathogenic Escherichia coli (APEC); conditions: APEC O8, M63 media; MIC/MBC
APEC O78 [12] = test: Confocal microscopy bacterial cytological profiling; assay type: cell-based, avian pathogenic Escherichia coli (APEC); conditions: 2X MBC
Procedure: Confocal and scanning electron microscopy. Confocal microscopy was used for bacterial cytological profiling (BCP) to identify the cellular pathways targeted by SMs as described previously. […] After incubation, treated cultures were centrifuged, washed, and resuspended in 100 μL PBS. […] Cultures were then centrifuged, washed, and resuspended in PBS to 1⁄10th volume of the original cultures.

APEC O109 = assay type: cell-based, avian pathogenic Escherichia coli (APEC); conditions: APEC O109, M63 media; MIC/MBC
APEC O78 [13] = test: Loss of 260/280 nm absorbing materials assay; assay type: cell-based, avian pathogenic Escherichia coli (APEC); conditions: 2X MBC, 1 h, *P<0.05 vs DMSO
APEC O115 = assay type: cell-based, avian pathogenic Escherichia coli (APEC); conditions: APEC O115, M63 media; MIC/MBC
APEC O2-211 = assay type: cell-based, avian pathogenic Escherichia coli (APEC); conditions: APEC O2-211, M63 media; MIC/MBC
[14] = tested on: intracellular APEC O78 in Caco-2 cells; test: Intracellular survival assay (cidal SMs); conditions: O78, Caco-2, 6 h treatment; superscript = multiple of MIC
APEC O35 = assay type: cell-based, avian pathogenic Escherichia coli (APEC); conditions: APEC O35, M63 media; MIC/MBC

CC(=O)OC(C(Br)C(=O)c1ccc([N+](=O)[O-])cc1)C(Cl)(Cl)Cl (centres unmarked) [SM10]
SMs intracellular APEC clearance concentration [1]: 50^b µM | SMs intracellular APEC clearance concentration [2]: 50^b µM | effectiveness in clearing intracellular APEC serotypes in all tested cells [3]: most effective | MBC (APEC O2): 50 µM (≈ 21.7 µg/mL) | MIC (APEC O2): 25 µM (≈ 10.8 µg/mL) | SMs intracellular APEC clearance concentration [4]: >100 µM | SMs intracellular APEC clearance concentration [5]: 100^c µM | MBC (APEC O18): 100 µM (≈ 43.3 µg/mL) | MIC (APEC O18): 25 µM (≈ 10.8 µg/mL) | MBC (APEC O78-53): 50 µM (≈ 21.7 µg/mL) | MIC (APEC O78-53): 25 µM (≈ 10.8 µg/mL) | reduction of average APEC load in internal organs (Rif^r APEC O78; average of liver, heart, lung and kidney, vs untreated control): 1.3 logs | reduction of APEC induced mortality (Rif^r APEC O78; oral gavage twice a day, 5 days, untreated mortality (58.34%) normalized to 100%): 71.42% | reduction of APEC lesions severity (%), Air-sacs (airsacculitis) (Rif^r APEC O78; untreated control = 100%): -52.9% | reduction of APEC lesions severity (%), Heart (pericarditis) (Rif^r APEC O78; untreated control = 100%): -28% | reduction of APEC lesions severity (%), Liver (perihepatitis) (Rif^r APEC O78; untreated control = 100%): 20% | reduction of APEC lesions severity (%), Lung (lung congestion) (Rif^r APEC O78; untreated control = 100%): 0% | reduction of APEC load, Heart (Rif^r APEC O78; vs untreated control): 1.0 log CFU/g of tissues | reduction of APEC load, Kidney (Rif^r APEC O78; vs untreated control): 2.4 log CFU/g of tissues | reduction of APEC load, Liver (Rif^r APEC O78; vs untreated control): 0.8 log CFU/g of tissues | reduction of APEC load, Lung (Rif^r APEC O78; vs untreated control): 1.4 log CFU/g of tissues | Body weight gain (BWG) (Rif^r APEC O78; weight of live chickens before necropsy minus weight before treatment): 220.75±38.93 | MBC (APEC O78 [6]): 50 µM (≈ 21.7 µg/mL) | MIC (APEC O78 [6]): 25 µM (≈ 10.8 µg/mL) | reduction of biofilms embedded APEC ([7]; at 1X MIC): significantly (P<0.05) reduced | MBEC ([7]; biofilm embedded APEC O78, superscript = multiple of MIC (footnote)): >200 µM | MBC (APEC O15): 100 µM (≈ 43.3 µg/mL) | MIC (APEC O15): 50 µM (≈ 21.7 µg/mL) | SMs intracellular APEC clearance concentration [8]: 100^c µM | MBC (APEC O1-63): 100 µM (≈ 43.3 µg/mL) | MIC (APEC O1-63): 50 µM (≈ 21.7 µg/mL) | SMs intracellular APEC clearance concentration [9]: 100^c µM | MBC (APEC O1): 25 µM (≈ 10.8 µg/mL) | MIC (APEC O1): 25 µM (≈ 10.8 µg/mL) | SMs intracellular APEC clearance concentration [10]: >100 µM | SMs intracellular APEC clearance concentration [11]: 100^c µM | MBC (APEC O8): 50 µM (≈ 21.7 µg/mL) | MIC (APEC O8): 50 µM (≈ 21.7 µg/mL) | cytological profile (confocal, FM4-64 / SYTO-9) (APEC O78 [12]): PG synthesis inhibitors | MBC (APEC O109): 50 µM (≈ 21.7 µg/mL) | MIC (APEC O109): 25 µM (≈ 10.8 µg/mL) | Absorbance 260 (APEC O78 [13]; 260 nm absorbing material in supernatant): 3.98* | Absorbance 280 (APEC O78 [13]; 280 nm absorbing material in supernatant): 2.73* | MBC (APEC O115): 50 µM (≈ 21.7 µg/mL) | MIC (APEC O115): 25 µM (≈ 10.8 µg/mL) | MBC (APEC O2-211): 50 µM (≈ 21.7 µg/mL) | MIC (APEC O2-211): 25 µM (≈ 10.8 µg/mL) | SMs intracellular APEC clearance concentration [14]: 100^c µM | MBC (APEC O35): 50 µM (≈ 21.7 µg/mL) | MIC (APEC O35): 25 µM (≈ 10.8 µg/mL)
